According to PMC4526387 (Clinical cancer research : an official journal of the …, 2015):
Where two headings read alike, the source gives them in different places.

What was measured:
[1] = test system: metastatic renal cell carcinoma (mRCC); details: subset with one prior VEGF-TKI; ref RECORD-1 trial; cited from earlier work
[2] = test system: metastatic renal cell carcinoma (mRCC); assay: Randomized phase II: 6MPFS, PFS, response; assay type: in vivo, human
[3] = Randomized phase II: adverse events; assay type: in vivo, human
[4] = Phase I PK of everolimus in whole blood; assay type: in vivo, human; details: 6-hour collection interval, everolimus 10 mg daily
[5] = cited from earlier work
[6] = test system: metastatic renal cell carcinoma (mRCC); details: subset with one prior VEGF-TKI; ref AXIS trial; cited from earlier work
advanced solid tumors = details: 21 patients, cited from earlier work
[7] = test system: metastatic renal cell carcinoma (mRCC); assay type: in vivo, human; details: rise in MMP-9 and SCF and fall in SHBG and SAP

CO[C@H]1C[C@@H]2CC[C@@H](C)[C@@](O)(O2)C(=O)C(=O)N2CCCC[C@H]2C(=O)O[C@H]([C@H](C)C[C@@H]2CC[C@@H](OCCO)[C@H](OC)C2)CC(=O)[C@H](C)/C=C(\C)[C@@H](O)[C@@H](OC)C(=O)[C@H](C)C[C@H](C)/C=C/C=C/C=C/1C [everolimus]
median PFS [1]: 5.4 months | 6-month progression-free survival (6MPFS) ([2]; phase II): 30.30% | partial responses (number) ([2]; phase II): 2 | median PFS amongst patients with liver metastasis ([2]; phase II exploratory analysis): 2.8 months | Abdominal pain % ([3]; % of arm): 10.4% | Acneiform rash % ([3]; % of arm): 10.4% | Anorexia % ([3]; % of arm): 23.9% | Back pain % ([3]; % of arm): 26.9% | Constipation % ([3]; % of arm): 22.4% | Cough % ([3]; % of arm): 20.9% | Diarrhea % ([3]; % of arm): 23.9% | Dyspnea % ([3]; % of arm): 31.3% | Epistaxis/Respiratory tract hemorrhage % ([3]; % of arm): 11.9% | Extremity pain % ([3]; % of arm): 13.4% | Fatigue % ([3]; % of arm): 44.8% | Fever % ([3]; % of arm): 17.9% | Headache % ([3]; % of arm): 16.4% | Insomnia % ([3]; % of arm): 16.4% | Lower extremity % ([3]; % of arm): 19.4% | Nausea % ([3]; % of arm): 23.9% | Nausea/Vomiting % ([3]; % of arm): 16.4% | Proteinuria % ([3]; % of arm): 14.9% | Pruritus % ([3]; % of arm): 7.5% | Rash % ([3]; % of arm): 22.4% | Skin changes % ([3]; % of arm): 20.9% | Stomatitis % ([3]; % of arm): 28.4% | Taste alteration % ([3]; % of arm): 14.9% | Elevated ALT % ([3]; laboratory, % of arm): 10.4% | Elevated AST % ([3]; laboratory, % of arm): 11.9% | Elevated alkaline phosphatise % ([3]; laboratory, % of arm): 14.9% | Elevated creatinine % ([3]; laboratory, % of arm): 11.9% | Hypercholesterolemia % ([3]; laboratory, % of arm): 28.4% | Hyperglycemia % ([3]; laboratory, % of arm): 25.4% | Hypertriglyceridemia % ([3]; laboratory, % of arm): 31.3% | Hyponatremia % ([3]; laboratory, % of arm): 11.9% | Low hemoglobin % ([3]; laboratory, % of arm): 37.3% | Thrombocytopenia % ([3]; laboratory, % of arm): 14.9% | Elevated ALT Grade 1/2 ([3]; laboratory, number of patients): 7 | Elevated ALT Grade 3/4 ([3]; laboratory, number of patients): 0 | Elevated ALT Grade 5 ([3]; laboratory, number of patients): 0 | Elevated ALT Total ([3]; laboratory, number of patients): 7 | Elevated AST Grade 1/2 ([3]; laboratory, number of patients): 8 | Elevated AST Grade 3/4 ([3]; laboratory, number of patients): 0 | Elevated AST Grade 5 ([3]; laboratory, number of patients): 0 | Elevated AST Total ([3]; laboratory, number of patients): 8 | Elevated alkaline phosphatise Grade 1/2 ([3]; laboratory, number of patients): 9 | Elevated alkaline phosphatise Grade 3/4 ([3]; laboratory, number of patients): 1 | Elevated alkaline phosphatise Grade 5 ([3]; laboratory, number of patients): 0 | Elevated alkaline phosphatise Total ([3]; laboratory, number of patients): 10 | Elevated creatinine Grade 1/2 ([3]; laboratory, number of patients): 5 | Elevated creatinine Grade 3/4 ([3]; laboratory, number of patients): 3 | Elevated creatinine Grade 5 ([3]; laboratory, number of patients): 0 | Elevated creatinine Total ([3]; laboratory, number of patients): 8 | Hypercholesterolemia Grade 1/2 ([3]; laboratory, number of patients): 19 | Hypercholesterolemia Grade 3/4 ([3]; laboratory, number of patients): 0 | Hypercholesterolemia Grade 5 ([3]; laboratory, number of patients): 0 | Hypercholesterolemia Total ([3]; laboratory, number of patients): 19 | Hyperglycemia Grade 1/2 ([3]; laboratory, number of patients): 12 | Hyperglycemia Grade 3/4 ([3]; laboratory, number of patients): 5 | Hyperglycemia Grade 5 ([3]; laboratory, number of patients): 0 | Hyperglycemia Total ([3]; laboratory, number of patients): 17 | Hypertriglyceridemia Grade 1/2 ([3]; laboratory, number of patients): 17 | Hypertriglyceridemia Grade 3/4 ([3]; laboratory, number of patients): 4 | Hypertriglyceridemia Grade 5 ([3]; laboratory, number of patients): 0 | Hypertriglyceridemia Total ([3]; laboratory, number of patients): 21 | Hyponatremia Grade 1/2 ([3]; laboratory, number of patients): 5 | Hyponatremia Grade 3/4 ([3]; laboratory, number of patients): 3 | Hyponatremia Grade 5 ([3]; laboratory, number of patients): 0 | Hyponatremia Total ([3]; laboratory, number of patients): 8 | Low hemoglobin Grade 1/2 ([3]; laboratory, number of patients): 19 | Low hemoglobin Grade 3/4 ([3]; laboratory, number of patients): 6 | Low hemoglobin Grade 5 ([3]; laboratory, number of patients): 0 | Low hemoglobin Total ([3]; laboratory, number of patients): 25 | Thrombocytopenia Grade 1/2 ([3]; laboratory, number of patients): 8 | Thrombocytopenia Grade 3/4 ([3]; laboratory, number of patients): 2 | Thrombocytopenia Grade 5 ([3]; laboratory, number of patients): 0 | Thrombocytopenia Total ([3]; laboratory, number of patients): 10 | Abdominal pain Grade 1/2 ([3]; number of patients): 5 | Abdominal pain Grade 3/4 ([3]; number of patients): 2 | Abdominal pain Grade 5 ([3]; number of patients): 0 | Abdominal pain Total ([3]; number of patients): 7 | Acneiform rash Grade 1/2 ([3]; number of patients): 7 | Acneiform rash Grade 3/4 ([3]; number of patients): 0 | Acneiform rash Grade 5 ([3]; number of patients): 0 | Acneiform rash Total ([3]; number of patients): 7 | Anorexia Grade 1/2 ([3]; number of patients): 15 | Anorexia Grade 3/4 ([3]; number of patients): 1 | Anorexia Grade 5 ([3]; number of patients): 0 | Anorexia Total ([3]; number of patients): 16 | Back pain Grade 1/2 ([3]; number of patients): 12 | Back pain Grade 3/4 ([3]; number of patients): 6 | Back pain Grade 5 ([3]; number of patients): 0 | Back pain Total ([3]; number of patients): 18 | Constipation Grade 1/2 ([3]; number of patients): 15 | Constipation Grade 3/4 ([3]; number of patients): 0 | Constipation Grade 5 ([3]; number of patients): 0 | Constipation Total ([3]; number of patients): 15 | Cough Grade 1/2 ([3]; number of patients): 13 | Cough Grade 3/4 ([3]; number of patients): 1 | Cough Grade 5 ([3]; number of patients): 0 | Cough Total ([3]; number of patients): 14 | Diarrhea Grade 1/2 ([3]; number of patients): 16 | Diarrhea Grade 3/4 ([3]; number of patients): 0 | Diarrhea Grade 5 ([3]; number of patients): 0 | Diarrhea Total ([3]; number of patients): 16 | Dyspnea Grade 1/2 ([3]; number of patients): 17 | Dyspnea Grade 3/4 ([3]; number of patients): 4 | Dyspnea Grade 5 ([3]; number of patients): 0 | Dyspnea Total ([3]; number of patients): 21 | Epistaxis/Respiratory tract hemorrhage Grade 1/2 ([3]; number of patients): 8 | Epistaxis/Respiratory tract hemorrhage Grade 3/4 ([3]; number of patients): 0 | Epistaxis/Respiratory tract hemorrhage Grade 5 ([3]; number of patients): 0 | Epistaxis/Respiratory tract hemorrhage Total ([3]; number of patients): 8 | Extremity pain Grade 1/2 ([3]; number of patients): 8 | Extremity pain Grade 3/4 ([3]; number of patients): 1 | Extremity pain Grade 5 ([3]; number of patients): 0 | Extremity pain Total ([3]; number of patients): 9 | Fatigue Grade 1/2 ([3]; number of patients): 24 | Fatigue Grade 3/4 ([3]; number of patients): 6 | Fatigue Grade 5 ([3]; number of patients): 0 | Fatigue Total ([3]; number of patients): 30 | Fever Grade 1/2 ([3]; number of patients): 10 | Fever Grade 3/4 ([3]; number of patients): 2 | Fever Grade 5 ([3]; number of patients): 0 | Fever Total ([3]; number of patients): 12 | Headache Grade 1/2 ([3]; number of patients): 10 | Headache Grade 3/4 ([3]; number of patients): 1 | Headache Grade 5 ([3]; number of patients): 0 | Headache Total ([3]; number of patients): 11 | Insomnia Grade 1/2 ([3]; number of patients): 11 | Insomnia Grade 3/4 ([3]; number of patients): 0 | Insomnia Grade 5 ([3]; number of patients): 0 | Insomnia Total ([3]; number of patients): 11 | Lower extremity Grade 1/2 ([3]; number of patients): 13 | Lower extremity Grade 3/4 ([3]; number of patients): 0 | Lower extremity Grade 5 ([3]; number of patients): 0 | Lower extremity Total ([3]; number of patients): 13 | Nausea Grade 1/2 ([3]; number of patients): 14 | Nausea Grade 3/4 ([3]; number of patients): 2 | Nausea Grade 5 ([3]; number of patients): 0 | Nausea Total ([3]; number of patients): 16 | Nausea/Vomiting Grade 1/2 ([3]; number of patients): 9 | Nausea/Vomiting Grade 3/4 ([3]; number of patients): 2 | Nausea/Vomiting Grade 5 ([3]; number of patients): 0 | Nausea/Vomiting Total ([3]; number of patients): 11 | Proteinuria Grade 1/2 ([3]; number of patients): 10 | Proteinuria Grade 3/4 ([3]; number of patients): 0 | Proteinuria Grade 5 ([3]; number of patients): 0 | Proteinuria Total ([3]; number of patients): 10 | Pruritus Grade 1/2 ([3]; number of patients): 4 | Pruritus Grade 3/4 ([3]; number of patients): 1 | Pruritus Grade 5 ([3]; number of patients): 0 | Pruritus Total ([3]; number of patients): 5 | Rash Grade 1/2 ([3]; number of patients): 15 | Rash Grade 3/4 ([3]; number of patients): 0 | Rash Grade 5 ([3]; number of patients): 0 | Rash Total ([3]; number of patients): 15 | Skin changes Grade 1/2 ([3]; number of patients): 11 | Skin changes Grade 3/4 ([3]; number of patients): 3 | Skin changes Grade 5 ([3]; number of patients): 0 | Skin changes Total ([3]; number of patients): 14 | Stomatitis Grade 1/2 ([3]; number of patients): 13 | Stomatitis Grade 3/4 ([3]; number of patients): 6 | Stomatitis Grade 5 ([3]; number of patients): 0 | Stomatitis Total ([3]; number of patients): 19 | Taste alteration Grade 1/2 ([3]; number of patients): 10 | Taste alteration Grade 3/4 ([3]; number of patients): 0 | Taste alteration Grade 5 ([3]; number of patients): 0 | Taste alteration Total ([3]; number of patients): 10 | overall mean concentration [4]: 17.8 ng/mL | half-life [5]: 26 to 38 h | mean trough concentration at steady state ([5]; patients who received 10 mg everolimus daily): 13.2 ng/mL

CNC(=O)c1ccccc1Sc1ccc2c(/C=C/c3ccccn3)n[nH]c2c1 [axitinib]
median PFS [6]: 4.8 months

COc1cc(C(=O)c2c(C)oc3c(OP(=O)([O-])[O-])c(OC)ccc23)cc(OC)c1OC.[Na+].[Na+] [BNC105P]
objective responses (advanced solid tumors): no objective responses | patients with stable disease (SD) as best response (advanced solid tumors): 4 patients | intravenous dose identified for further studies (advanced solid tumors; days 1 and 8 of a 21-day cycle): 16 mg/m^2 | patients progression free at 6 months, selected population [7]: 60%
